Source: patent US11028051B2, “Tetrahydroquinoline-based bromodomain inhibitors” (St. Jude Children's Research Hospital, priority 2016, dated 2021)
Read-outs that look alike come from different tables or passages of the source.

Key:
Assay in all cases: competitive TR-FRET assay, BET-BD with acetylated peptide ligand
Format in all cases: binding
[1] = biological target: BRD2-BD2 (Homo sapiens (Human), UniProt P25440); conditions: for EC50: Table 11 additional modifications; for 2.1/2.2: ratio of BRD2-BD1 EC50 to BRD2-BD2 EC50 (selectivity)
Method: (§1) Inhibitor potency was determined using a competitive TR-FRET assay as detailed herein, measuring interaction of the respective BET-BD with an acetylated peptide ligand (Table 2).

[2] = biological target: BRD2-BD1 (Homo sapiens (Human), UniProt P25440); conditions: BRD2-BD1; Table 11 additional modifications; read-out: 2.1 EC50
Method: as §1

[3] = biological target: BRDT (Homo sapiens, UniProt Q58F21); conditions: BRDT; Table 11 additional modifications; read-out: BRDT EC50
Method: as §1

[4] = biological target: BRD3-BD1 (Homo sapiens (Human), UniProt Q15059); conditions: BRD3-BD1; Table 11 additional modifications; read-out: 3.1 EC50
Method: as §1

Sequence of BRD2-BD2 (P25440 344-453): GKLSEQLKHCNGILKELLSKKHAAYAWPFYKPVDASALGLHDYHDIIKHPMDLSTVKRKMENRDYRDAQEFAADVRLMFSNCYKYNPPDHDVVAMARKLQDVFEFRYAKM
Sequence of BRD2-BD1 (P25440 74-180): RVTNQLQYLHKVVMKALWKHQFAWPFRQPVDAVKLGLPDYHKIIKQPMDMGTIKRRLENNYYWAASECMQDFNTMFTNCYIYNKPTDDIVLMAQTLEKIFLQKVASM
Sequence of BRD3-BD1 (Q15059 34-140): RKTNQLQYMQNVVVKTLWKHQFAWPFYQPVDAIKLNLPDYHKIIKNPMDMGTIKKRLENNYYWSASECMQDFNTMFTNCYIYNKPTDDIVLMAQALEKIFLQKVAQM

## CC(=O)Nc1cccc(-c2ccc3c(c2)[C@H](Nc2ccc(C(C)=O)cc2)C[C@H](C)N3C(C)=O)c1 [compound 17]
[1]; BRD2-BD2, read-out: 2.2 EC50
  EC50: 70 nM
[1]
  2.1/2.2: 16
[2]
  EC50: 1100 nM
[3]
  EC50: 4.6 µM

## CC(=O)Nc1ccc(-c2ccc3c(c2)[C@H](Nc2ccc(Cl)cc2)C[C@H](C)N3C(C)=O)cc1 [compound 48]
[1]; BRD2-BD2, read-out: 2.2 EC50
  EC50: 360 nM
[1]
  2.1/2.2: 5.3
[4]
  EC50: 1900 nM
[2]
  EC50: 1900 nM
[3]
  EC50: 5.3 µM

## CC(=O)Nc1cccc(-c2ccc3c(c2)[C@H](NC2CCN(C)CC2)C[C@H](C)N3C(C)=O)c1 [compound 119]
[1]
  2.1/2.2: 2.9

## CC(=O)Nc1cccc(-c2ccc3c(c2)[C@H](Nc2ccc(NC(=O)CO)cc2)C[C@H](C)N3C(C)=O)c1 [compound 121]
[1]
  2.1/2.2: 33

## CC(=O)N(c1ccc(NCC2CC2)cc1)[C@@H]1C[C@H](C)N(C(C)=O)c2ccc(-c3cccc(NC(=O)OC(C)(C)C)c3)cc21 [compound 122]
[1]
  2.1/2.2: 70

## CC(=O)Nc1cccc(-c2ccc3c(c2)[C@H](Nc2ccc(NC(=O)C4CC4)cc2)C[C@H](C)N3C(C)=O)c1 [compound 123]
[1]
  2.1/2.2: >1000

## CC(=O)N(c1ccc(NCCC(C)C)cc1)[C@@H]1C[C@H](C)N(C(C)=O)c2ccc(-c3cccc(NC(=O)OC(C)(C)C)c3)cc21 [compound 124]
[1]
  2.1/2.2: 4.0

## C#CCCCC(=O)Nc1cccc(-c2ccc3c(c2)[C@H](Nc2ccc(C(=O)OC)cc2)C[C@H](C)N3C(C)=O)c1 [compound 138]
[1]; BRD2-BD2, read-out: 2.2 EC50
  EC50: 90 nM
[1]
  2.1/2.2: 36
[4]
  EC50: 1800 nM
[2]
  EC50: 4600 nM
[3]
  EC50: 8.7 µM

## C#CCCNC(=O)c1ccc(N[C@@H]2C[C@H](C)N(C(C)=O)c3ccc(-c4cccc(NC(C)=O)c4)cc32)cc1 [compound 139]
[1]; BRD2-BD2, read-out: 2.2 EC50
  EC50: 230 nM
[1]
  2.1/2.2: 3.4
[4]
  EC50: 690 nM
[2]
  EC50: 790 nM
[3]
  EC50: 1.9 µM

## CC(=O)N1c2ccc(-c3cccc(-n4cccn4)c3)cc2[C@H](Nc2ccccc2OC(F)(F)F)C[C@@H]1C [compound 140]
[1]; BRD2-BD2, read-out: 2.2 EC50
  EC50: 1400 nM
[1]
  2.1/2.2: 22.9
[4]
  EC50: 31000 nM
[2]
  EC50: 21000 nM
[3]
  EC50: > 82 µM

## COC(=O)c1ccc(N[C@@H]2C[C@H](C)N(C(C)=O)c3ccc(-c4cccc(NCC5CC5)c4)cc32)cc1 [compound 141]
[1]; BRD2-BD2, read-out: 2.2 EC50
  EC50: 500 nM
[1]
  2.1/2.2: 0.015
[4]
  EC50: 1700 nM
[2]
  EC50: 2500 nM
[3]
  EC50: 5.2 µM

## COC(=O)c1ccc(N[C@@H]2C[C@H](C)N(C(C)=O)c3ccc(-c4c[nH]cn4)cc32)cc1 [compound 156]
[1]
  2.1/2.2: 9.4

## COC(=O)c1ccc(N[C@@H]2C[C@H](C)N(C(C)=O)c3ccc(-c4cn(C)cn4)cc32)cc1 [compound 157]
[1]
  2.1/2.2: 52

## COC(=O)c1ccc(CN(Cc2ccc(C(=O)OC)cc2)[C@@H]2C[C@H](C)N(C(C)=O)c3ccc(-c4cccc(NC(C)=O)c4)cc32)cc1 [compound 158]
[1]
  2.1/2.2: 11

## COC(=O)c1ccc(CN[C@@H]2C[C@H](C)N(C(C)=O)c3ccc(-c4cccc(NC(C)=O)c4)cc32)cc1 [compound 159]
[1]
  2.1/2.2: 2.9

## CC(=O)Nc1cccc(-c2ccc3c(c2)[C@H](Nc2ccc(C(=O)COC(C)=O)cc2)C[C@H](C)N3C(C)=O)c1 [compound 162]
[1]
  2.1/2.2: 21

## CC(=O)Nc1cccc(-c2ccc3c(c2)[C@H](Nc2cccc(CN)c2)C[C@H](C)N3C(C)=O)c1 [compound 163]
[1]
  2.1/2.2: 6.7

## COc1cccc(NC2CCN(C(C)=O)c3ccc(-c4cccc(NC(C)=O)c4)cc32)c1 (centres unmarked) [compound 178]
[1]
  2.1/2.2: 22

## CC(=O)N1c2ccc(-c3cccc(NCCC(F)(F)F)c3)cc2[C@H](Nc2ccc(C#N)cc2)C[C@@H]1C [compound 180]
[1]
  2.1/2.2: 13

## CC(=O)Nc1cccc(-c2ccc3c(c2)[C@H](Nc2cccc(C(F)(F)F)c2)C[C@H](C)N3C(C)=O)c1 [compound 181]
[1]; BRD2-BD2, read-out: 2.2 EC50
  EC50: 170 nM
[1]
  2.1/2.2: 8.4
[2]
  EC50: 8000 nM

## CC(=O)N1c2ccc(-c3ccn(C)n3)cc2[C@H](Nc2ccc(C#N)cc2)C[C@@H]1C [compound 182]
[1]
  2.1/2.2: 23

## CC(=O)N1c2ccc(-c3cccc(NCC4CCOC4)c3)cc2[C@H](Nc2ccc(C#N)cc2)C[C@@H]1C (some centres unmarked) [compound 183]
[1]
  2.1/2.2: 27

## CC(=O)N1c2ccc(-c3cccc(NC(=O)C(C)C)c3)cc2[C@H](Nc2ccc(C#N)cc2)C[C@@H]1C [compound 184]
[1]; BRD2-BD2, read-out: 2.2 EC50
  EC50: 110 nM
[1]
  2.1/2.2: 14
[2]
  EC50: 670 nM

## CC(=O)N1c2ccc(-c3cccc(NC(=O)C(C)(C)C)c3)cc2[C@H](Nc2ccc(C#N)cc2)C[C@@H]1C [compound 185]
[1]; BRD2-BD2, read-out: 2.2 EC50
  EC50: 29 nM
[2]
  EC50: 1800 nM

## CC(=O)Nc1cccc(-c2ccc3c(c2)[C@H](Nc2ccc(C#N)c(Cl)c2)C[C@H](C)N3C(C)=O)c1 [compound 186]
[1]; BRD2-BD2, read-out: 2.2 EC50
  EC50: 59 nM
[2]
  EC50: 2100 nM

## CC(=O)Nc1cccc(-c2ccc3c(c2)[C@H](Nc2ccccc2Cl)C[C@H](C)N3C(C)=O)c1 [compound 187]
[1]; BRD2-BD2, read-out: 2.2 EC50
  EC50: 120 nM
[2]
  EC50: 8700 nM

## CC(=O)Nc1cccc(-c2ccc3c(c2)[C@H](Nc2ccc4c(c2)CCNC4)C[C@H](C)N3C(C)=O)c1 [compound 188]
[1]; BRD2-BD2, read-out: 2.2 EC50
  EC50: 4 nM
[2]
  EC50: 110 nM

## COc1cc(C#N)ccc1N[C@@H]1C[C@H](C)N(C(C)=O)c2ccc(-c3cccc(NC(C)=O)c3)cc21 [compound 189]
[1]; BRD2-BD2, read-out: 2.2 EC50
  EC50: 17 nM
[1]
  2.1/2.2: 48
[2]
  EC50: 670 nM

## CC(=O)Nc1cccc(-c2ccc3c(c2)[C@H](Nc2cc(F)c(C#N)c(F)c2)C[C@H](C)N3C(C)=O)c1 [compound 190]
[1]; BRD2-BD2, read-out: 2.2 EC50
  EC50: 120 nM
[1]
  2.1/2.2: 37
[2]
  EC50: 2200 nM

## COc1cc(N[C@@H]2C[C@H](C)N(C(C)=O)c3ccc(-c4cccc(NC(C)=O)c4)cc32)ccc1C#N [compound 191]
[1]; BRD2-BD2, read-out: 2.2 EC50
  EC50: 47 nM
[1]
  2.1/2.2: 26
[2]
  EC50: 1200 nM

## CC(=O)Nc1cccc(-c2ccc3c(c2)[C@H](Nc2ccc(C#N)c(C(F)(F)F)c2)C[C@H](C)N3C(C)=O)c1 [compound 192]
[1]; 2.2 EC50, BRD2-BD2
  EC50: 52 nM
[1]
  2.1/2.2: 6.3
[2]
  EC50: 4800 nM

## CC(=O)Nc1cccc(-c2ccc3c(c2)[C@H](Nc2ccc(C#N)c(F)c2)C[C@H](C)N3C(C)=O)c1 [compound 193]
[1]
  2.1/2.2: 63
[2]
  EC50: 1000 nM

## CC(=O)Nc1cccc(-c2ccc3c(c2)[C@H](Nc2ccccc2C#N)C[C@H](C)N3C(C)=O)c1 [compound 194]
[1]; BRD2-BD2, read-out: 2.2 EC50
  EC50: 60 nM
[1]
  2.1/2.2: 35
[2]
  EC50: 2200 nM

## CC(=O)Nc1cccc(-c2ccc3c(c2)[C@H](Nc2ccc(C#N)c(C)c2)C[C@H](C)N3C(C)=O)c1 [compound 195]
[1]; BRD2-BD2, read-out: 2.2 EC50
  EC50: 17 nM
[1]
  2.1/2.2: 73
[2]
  EC50: 870 nM

## CC(=O)Nc1cccc(-c2ccc3c(c2)[C@H](Nc2ccc(C#N)cc2Cl)C[C@H](C)N3C(C)=O)c1 [compound 196]
[1]; BRD2-BD2, read-out: 2.2 EC50
  EC50: 60 nM
[1]
  2.1/2.2: 27
[2]
  EC50: 2170 nM

## CC(=O)Nc1cccc(-c2ccc3c(c2)[C@H](Nc2ccccc2Cl)C[C@H](C)N3C(C)=O)c1 [compound 197]
[1]; BRD2-BD2, read-out: 2.2 EC50
  EC50: 54 nM
[1]
  2.1/2.2: 39
[2]
  EC50: 3500 nM

## CC(=O)Nc1cccc(-c2ccc3c(c2)[C@H](Nc2cccc(Cl)c2)C[C@H](C)N3C(C)=O)c1 [compound 198]
[1]; BRD2-BD2, read-out: 2.2 EC50
  EC50: 57 nM
[1]
  2.1/2.2: 19
[2]
  EC50: 3300 nM

## CC(=O)Nc1cccc(-c2ccc3c(c2)[C@H](Nc2ccc(C#N)cc2C)C[C@H](C)N3C(C)=O)c1 [compound 199]
[1]; BRD2-BD2, read-out: 2.2 EC50
  EC50: 19 nM
[1]
  2.1/2.2: 26
[2]
  EC50: 890 nM

## CC(=O)Nc1cccc(-c2ccc3c(c2)[C@H](Nc2ccccc2C)C[C@H](C)N3C(C)=O)c1 [compound 200]
[1]
  2.1/2.2: 92
[2]
  EC50: 2000 nM

## CC(=O)N1c2ccc(-c3cc[nH]n3)cc2[C@H](Nc2ccc(F)c(F)c2)C[C@@H]1C [compound 202]
[1]
  2.1/2.2: 36

## CC(=O)N1c2ccc(-c3cc[nH]n3)cc2[C@H](Nc2ccccc2Cl)C[C@@H]1C [compound 203]
[1]
  2.1/2.2: 51

## CC(=O)Nc1cccc(-c2ccc3c(c2)[C@H](Nc2ccc(F)cc2Cl)C[C@H](C)N3C(C)=O)c1 [compound 204]
[1]
  2.1/2.2: 36

## CC(=O)N1c2ccc(-c3cccc(NC(=O)C(C)(C)C)c3)cc2[C@H](Nc2ccccc2Cl)C[C@@H]1C [compound 205]
[1]
  2.1/2.2: 64

## CC(=O)N1c2ccc(-c3cccc(NC(=O)C(C)(C)C)c3)cc2[C@H](Nc2ccc(Cl)cc2)C[C@@H]1C [compound 206]
[1]
  2.1/2.2: 57

## CC(=O)N1c2ccc(-c3ccn(-c4ccc(C#N)cc4)n3)cc2[C@H](Nc2ccc(C#N)cc2)C[C@@H]1C [compound 207]
[1]
  2.1/2.2: 44
